Where two headings read alike, the source gives them in different places.
How the values were obtained:
BaF3 parental cells = test: In vitro cell proliferation potency assay, BaF3 parental line with IL-3 (Cell Titer Glo); assay type: cell-based, murine; conditions: Mus musculus, 2 ng/mL mIL-3, incubated overnight, read-out: Prolif. BaF3 IL3 (IC50)
Protocol: (§1) In Vitro Cell Proliferation Potency Assays
(§2) BaF3 parental line was obtained from the DSMZ repository. BaF3 lines transfected with PIM-1 or PIM-2 were generated. Mouse IL-3 was purchased from R&D Systems. G418 was purchased from Clontech. Media for BaF3 parental line contained RPMI, 10% FBS, 2 mM L-Glutamine, 2 ng/mL mIL-3. Media for BaF3 PIM1 & 2 lines contained RPMI, 10% FBS, 2 mM L-Glutamine, […]. Media for MM1.S (multiple myeloma cells) line contained RPMI, 10% FBS, 2 mM L-Glutamine.
(§3) BaF3, a murine interleukin-3 dependent pro-B cell line, parental cells, BaF3 PIM1 cells, BaF3 PIM-2 cells, and MM1.S (multiple myeloma) cells were seeded at 2 k/well, 5 k/well, 5 k/well, and 10 k/well respectively, in a 384-well plate, at 45 μL/well. Test compound was added at 5 μL/well. BaF3 cells (parental and transfected) were incubated overnight, while MM1.S cells were incubated for 72 hours at 37° C., 5% CO2. Cell Titer Glo Reagent (Promega) was added at 50 μL/well, the plates were incubated for 30 minutes, and their luminescence read on an HT Analyst. IC50/EC50 values for the test compound were calculated.

Pim-1 = Pim-1 (Homo sapiens (Human), UniProt P11309); test: Pim kinase binding activity assay (Example 901), PIM-1 enzyme, Caliper microfluidic peptide phosphorylation; assay type: biochemical; conditions: 20 pM PIM-1, 10 μM ATP, 1 μM FAM-peptide, 90 minutes at room temperature
How it was run: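 The readout was microfluidic mobility-shift separation of a FAM-tagged Pim-specific peptide, excited at 488 nm and read at 530 nm, with Ki calculated from percent conversion. Reactions held 20 pM PIM-1, 1 μM peptide and 10 μM ATP in pH 7.2 HEPES/MgCl2/DTT buffer, ran 90 min at room temperature and were stopped with EDTA.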

BaF3 PIM1 cells = test: In vitro cell proliferation potency assay, BaF3 line transfected with PIM-1 (Cell Titer Glo); assay type: cell-based, murine; conditions: incubated overnight, read-out: Prolif. BaF3 PIM-1 (IC50)
Protocol: as §1
as §2, with “BaF3 lines transfected with PIM-1 or PIM-2 were generated.” left out
as §3

[1] = tested on: MM1.S (multiple myeloma) cells; test: In vitro cell proliferation potency assay, MM1.S cells (Cell Titer Glo); assay type: cell-based; conditions: Homo sapiens, 72 hours, read-out: Prolif. MM1S ATP (EC50)
Protocol: as §1, §2, §3

Pim-1, sequence (P11309 whole entry): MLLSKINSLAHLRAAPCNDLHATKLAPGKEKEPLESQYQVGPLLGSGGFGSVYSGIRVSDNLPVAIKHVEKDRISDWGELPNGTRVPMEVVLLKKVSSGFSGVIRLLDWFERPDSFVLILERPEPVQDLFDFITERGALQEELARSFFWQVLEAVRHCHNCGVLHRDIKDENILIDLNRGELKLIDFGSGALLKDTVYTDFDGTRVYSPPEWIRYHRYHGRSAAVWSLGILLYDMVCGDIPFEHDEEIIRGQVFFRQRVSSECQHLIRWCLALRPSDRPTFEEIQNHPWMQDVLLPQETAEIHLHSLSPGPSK

Ki (Pim-1)	IC50 (BaF3 PIM1 cells; Mus musculus)	EC50 [1]	IC50 (BaF3 PIM1 cells)	Compound	IC50 (BaF3 parental cells)
0.048 nM	336 nM	201 nM		N[C@H]1CCCN(c2cccc(-c3n[nH]c4cnc(-c5cccnc5)cc34)n2)CC1 [Example 248, (S)-1-(6-(5-(pyridin-3-yl)-1H-pyrazolo[3,4-c]pyridin-3-yl)pyridin-2-yl)azepan-4-amine]	1600 nM
0.26 nM	709 nM	244 nM		OCCN1CCCN(c2cccc(-c3n[nH]c4cnc(-c5cccnc5)cc34)n2)CC1 [Example 357, 2-(4-(6-(5-(pyridin-3-yl)-1H-pyrazolo[3,4-c]pyridin-3-yl)pyridin-2-yl)-1,4-diazepan-1-yl)ethanol]	4900 nM
	47.1 nM	631 nM		N[C@H]1CCCN(c2cncc(-c3cc4c(-c5ccccc5F)n[nH]c4cn3)n2)C1 [Example 152, (S)-1-(6-(3-(2-fluorophenyl)-1H-pyrazolo[3,4-c]pyridin-5-yl)pyrazin-2-yl)piperidin-3-amine]	2700 nM
	188 nM	287 nM		N[C@@H]1CCCN(c2cccc(-c3n[nH]c4cnc(-c5cncs5)cc34)n2)C1 [Example 350, (R)-1-(6-(5-(thiazol-5-yl)-1H-pyrazolo[3,4-c]pyridin-3-yl)pyridin-2-yl)piperidin-3-amine]	3600 nM
0.01 nM	40.2 nM	97.9 nM		Cc1cncc(-c2cc3c(-c4cccc(N5CCNCC5)n4)n[nH]c3cn2)n1 [Example 505, 5-(6-methylpyrazin-2-yl)-3-(6-(piperazin-1-yl)pyridin-2-yl)-1H-pyrazolo[3,4-c]pyridine]	2300 nM
	28 nM	436 nM		N[C@@H]1CCCN(c2cncc(-c3cc4c(-c5ccccc5F)n[nH]c4cn3)n2)C1 [Example 153, (R)-1-(6-(3-(2-fluorophenyl)-1H-pyrazolo[3,4-c]pyridin-5-yl)pyrazin-2-yl)piperidin-3-amine]	2500 nM
	478 nM	707 nM		NC[C@H]1CCN(c2cccc(-c3n[nH]c4cnc(-c5cccnc5)cc34)n2)C1 [Example 270, (R)-(1-(6-(5-(pyridin-3-yl)-1H-pyrazolo[3,4-c]pyridin-3-yl)pyridin-2-yl)pyrrolidin-3-yl)methanamine]	13100 nM
		376 nM	251 nM	Cn1cc(-c2cc3c(-c4cccc(N5CCC[C@H](N)C5)n4)n[nH]c3cn2)cn1 [Example 173, (S)-1-(6-(5-(1-methyl-1H-pyrazol-4-yl)-1H-pyrazolo[3,4-c]pyridin-3-yl)pyridin-2-yl)piperidin-3-amine]	5700 nM
	18800 nM			Fc1ccccc1-c1n[nH]c2cnc(-c3cccnc3)cc12 [Example 117, 3-(2-fluorophenyl)-5-(pyridin-3-yl)-1H-pyrazolo[3,4-c]pyridine]	12900 nM
7.85 nM	5200 nM			Cn1cc(-c2cc3c(-c4ccccc4F)n[nH]c3cn2)cn1 [Example 129, 3-(2-fluorophenyl)-5-(1-methyl-1H-pyrazol-4-yl)-1H-pyrazolo[3,4-c]pyridine]	5600 nM
0.06 nM				CCn1cc(-c2cc3c(-c4cccc(N5CCNC(C(F)(F)F)C5)n4)n[nH]c3cn2)cn1 (centres unmarked) [Example 468, 5-(1-ethyl-1H-pyrazol-4-yl)-3-(6-(3-(trifluoromethyl)piperazin-1-yl)pyridin-2-yl)-1H-pyrazolo[3,4-c]pyridine]	
8.69 nM				Fc1ccccc1-c1n[nH]c2cnc(-c3cn[nH]c3)cc12 [Example 136, 3-(2-fluorophenyl)-5-(1H-pyrazol-4-yl)-1H-pyrazolo[3,4-c]pyridine]	
1.17 nM				Cn1cc(-c2cc3c(-c4cccc(N5C[C@H](N)C[C@@H](F)C5)n4)n[nH]c3cn2)cn1 [Example 517, (3R,5R)-5-fluoro-1-(6-(5-(1-methyl-1H-pyrazol-4-yl)-1H-pyrazolo[3,4-c]pyridin-3-yl)pyridin-2-yl)piperidin-3-amine]	
0.22 nM				NC(=O)C1(N)CCN(c2cccc(-c3n[nH]c4cnc(-c5cccnc5)cc34)n2)CC1 [Example 229, 4-amino-1-(6-(5-(pyridin-3-yl)-1H-pyrazolo[3,4-c]pyridin-3-yl)pyridin-2-yl)piperidine-4-carboxamide]	
0.0473 nM				CCn1cc(-c2cc3c(-c4cccc(N5CCC[C@@H](N)C5)n4)n[nH]c3cn2)cn1 [Example 285, (R)-1-(6-(5-(1-ethyl-1H-pyrazol-4-yl)-1H-pyrazolo[3,4-c]pyridin-3-yl)pyridin-2-yl)piperidin-3-amine]	
0.034 nM				CCn1cc(-c2cc3c(-c4cccc(N5CCC[C@H](N)CC5)n4)n[nH]c3cn2)cn1 [Example 481, (S)-1-(6-(5-(1-ethyl-1H-pyrazol-4-yl)-1H-pyrazolo[3,4-c]pyridin-3-yl)pyridin-2-yl)azepan-4-amine]	

Second part, the compound before the results:

Compound	Ki (Pim-1)	IC50 (BaF3 PIM1 cells; Mus musculus)	EC50 [1]	IC50 (BaF3 PIM1 cells)	IC50 (BaF3 parental cells)
NC1CCN(c2cncc(-c3cc4c(-c5ccccc5F)n[nH]c4cn3)n2)CC1 [Example 147, 1-(6-(3-(2-fluorophenyl)-1H-pyrazolo[3,4-c]pyridin-5-yl)pyrazin-2-yl)piperidin-4-amine]	0.121 nM	368 nM	60.4 nM		3900 nM
NC1CCN(c2cccc(-c3n[nH]c4cnc(-c5cccnc5)cc34)n2)CC1 [Example 144, 1-(6-(5-(pyridin-3-yl)-1H-pyrazolo[3,4-c]pyridin-3-yl)pyridin-2-yl)piperidin-4-amine]	0.0839 nM	130 nM	2200 nM		3300 nM
c1ccc(-c2n[nH]c3cnc(-c4cccnc4)cc23)cc1 [Example 116, 3-phenyl-5-(pyridin-3-yl)-1H-pyrazolo[3,4-c]pyridine]					13700 nM
COCCn1cc(-c2cc3c(-c4cccc(N5CCNCC5)n4)n[nH]c3cn2)cn1 [Example 382, 5-(1-(2-methoxyethyl)-1H-pyrazol-4-yl)-3-(6-(piperazin-1-yl)pyridin-2-yl)-1H-pyrazolo[3,4-c]pyridine]		274 nM	3200 nM		17000 nM
N[C@H]1CCN(c2cncc(-c3cc4c(-c5ccccc5F)n[nH]c4cn3)c2)C1 [Example 190, (S)-1-(5-(3-(2-fluorophenyl)-1H-pyrazolo[3,4-c]pyridin-5-yl)pyridin-3-yl)pyrrolidin-3-amine]	0.27 nM	159 nM	67.2 nM		1800 nM
c1cc(-c2n[nH]c3cnc(-c4cnn(C5CCC5)c4)cc23)nc(N2CCNCC2)c1 [Example 390, 5-(1-cyclobutyl-1H-pyrazol-4-yl)-3-(6-(piperazin-1-yl)pyridin-2-yl)-1H-pyrazolo[3,4-c]pyridine]	0.132 nM	58.5 nM	130 nM		5700 nM
CCn1cc(-c2cc3c(-c4cccc(N5CCNCC5)n4)n[nH]c3cn2)cn1 [Example 356, 5-(1-ethyl-1H-pyrazol-4-yl)-3-(6-(piperazin-1-yl)pyridin-2-yl)-1H-pyrazolo[3,4-c]pyridine]	0.073 nM	76.6 nM	638 nM		5400 nM
N[C@H]1CCCN(c2cccc(-c3n[nH]c4cnc(-c5cncs5)cc34)n2)C1 [Example 349, (S)-1-(6-(5-(thiazol-5-yl)-1H-pyrazolo[3,4-c]pyridin-3-yl)pyridin-2-yl)piperidin-3-amine]		681 nM	393 nM		3400 nM
N[C@@H]1CCCN(c2cccc(-c3n[nH]c4cnc(N5CCOC5=O)cc34)n2)C1 [Example 370, (R)-3-(3-(6-(3-aminopiperidin-1-yl)pyridin-2-yl)-1H-pyrazolo[3,4-c]pyridin-5-yl)oxazolidin-2-one]	180 nM				
FCCn1cc(-c2cc3c(-c4cccc(N5CCNCC5)n4)n[nH]c3cn2)cn1 [Example 391, 5-(1-(2-fluoroethyl)-1H-pyrazol-4-yl)-3-(6-(piperazin-1-yl)pyridin-2-yl)-1H-pyrazolo[3,4-c]pyridine]	0.108 nM				
CCn1cc(-c2cc3c(-c4cccc(N5CCCCC(O)C5)n4)n[nH]c3cn2)cn1 (centres unmarked) [Example 494, 1-(6-(5-(1-ethyl-1H-pyrazol-4-yl)-1H-pyrazolo[3,4-c]pyridin-3-yl)pyridin-2-yl)azepan-3-ol]	0.122 nM				

Source: patent publication US9260425B2 (Genetech, Inc., priority 2011, dated 2016)
